Measured values published in US11656384B2, “Composition, film, lens, solid state imaging element, and compounds” (FUJIFILM Corporation, priority 2017, dated 2023).
One block for each compound: values may come before it.

Experiment: Dissolution test: solubility of the compound in a solvent at 25° C.
[1] = solvent Diethylene glycol monobutyl ether acetate
[2] = solvent PGMEA/PGME (90% by mass/10% by mass)

Description: By the following method, the solubility of the compound represented by General Formula (I) in a solvent was investigated.
Then, solids were removed using a 0.5 μm TEFLON (registered trademark) filter. Thereafter, the obtained filtrate was caused to volatilize for 3 hours at 150° C. in a vacuum, and the content of residues was measured, thereby quantifying the content of solids dissolved in the solvent.

Structure (SMILES): N#Cc1ccc(-c2ccc(Nc3nc(Nc4ccc(-c5ccc(C#N)cc5)cc4)nc(Oc4ccccc4)n3)cc2)cc1 [Compound A-24]
Solubility (solvent PGMEA): Less than 0.5% by % by mass

Structure (SMILES): N#Cc1ccc(Nc2nc(Nc3ccc(C#N)cc3)nc(Nc3ccc(C#N)cc3)n2)cc1 [Compound A-2]
Solubility (solvent Cyclohexyl methyl ether): < 0.5% by mass
Solubility (solvent PGMEA): Less than 0.5% by % by mass

Structure (SMILES): c1ccc(-c2ccc(-c3ccc(Nc4nc(Nc5ccc(-c6ccc(-c7ccccc7)cc6)cc5)nc(Nc5nc6ccccc6s5)n4)cc3)cc2)cc1 [Compound A-20]
Solubility (solvent PGMEA): Less than 0.5% by % by mass

Structure (SMILES): O=[N+]([O-])c1ccc(Nc2nc(Nc3ccc([N+](=O)[O-])cc3)nc(Nc3ccc([N+](=O)[O-])cc3)n2)cc1 [Compound A-6]
Solubility (solvent Cyclohexyl acetate): < 0.5% by mass
Solubility (solvent PGMEA): Less than 0.5% by % by mass

Structure (SMILES): c1ccc(-c2ccc(-c3ccc(Nc4nc(Nc5ccc(-c6ccc(-c7ccccc7)cc6)cc5)nc(Nc5ccc(-c6ccc(-c7ccccc7)cc6)cc5)n4)cc3)cc2)cc1 [Compound A-7]
Solubility (solvent PGMEA): Less than 0.5% by % by mass
Solubility (solvent PGMEA/PGME (70% by mass/30% by mass)): < 0.5% by mass
Solubility [2]: < 0.5% by mass

Structure (SMILES): Brc1ccc(Nc2nc(Nc3ccc(Br)cc3)nc(Nc3ccc(Br)cc3)n2)cc1 [Compound A-5]
Solubility (solvent 3-methoxybutyl acetate): < 0.5% by mass
Solubility (solvent PGMEA): Less than 0.5% by % by mass

Structure (SMILES): Clc1ccc(-c2ccc(Nc3nc(Nc4ccc(-c5ccc(Cl)cc5)cc4)nc(Nc4ccc(-c5ccc(Cl)cc5)cc4)n3)cc2)cc1 [Compound A-22]
Solubility (solvent PGMEA): Less than 0.5% by % by mass

Structure (SMILES): N#Cc1ccc(-c2ccc(Nc3nc(Nc4ccc(-c5ccc(C#N)cc5)cc4)nc(Nc4ccc(-c5ccc(C#N)cc5)cc4)n3)cc2)cc1 [Compound A-8]
Solubility (solvent Cyclopentanone): < 0.5% by mass
Solubility (solvent PGMEA): Less than 0.5% by % by mass

Structure (SMILES): CC(=O)Nc1ccc(Nc2nc(Nc3ccc(NC(C)=O)cc3)nc(Nc3ccc(NC(C)=O)cc3)n2)cc1 [Compound A-3]
Solubility (solvent Cyclohexanone): < 0.5% by mass
Solubility (solvent PGME): < 0.5% by mass
Solubility (solvent PGMEA): Less than 0.5% by % by mass

Second part, the compound after the results:

Solubility (solvent PGMEA): Less than 0.5% by % by mass
Structure (SMILES): c1ccc(-c2ccc(-c3ccc(-c4ccc(Nc5nc(Nc6ccc(-c7ccc(-c8ccc(-c9ccccc9)cc8)cc7)cc6)nc(Nc6ccc(-c7ccc(-c8ccc(-c9ccccc9)cc8)cc7)cc6)n5)cc4)cc3)cc2)cc1 [Compound A-21]

Solubility (solvent Ethyl lactate): < 0.5% by mass
Solubility (solvent PGMEA): Less than 0.5% by % by mass
Structure (SMILES): O=C(Nc1ccccc1)c1cc(C(=O)Nc2ccccc2)cc(C(=O)Nc2ccccc2)c1 [Compound A-14]

Solubility (solvent PGMEA): Less than 0.5% by % by mass
Structure (SMILES): c1ccc(Nc2nc(Nc3ccccc3)nc(Nc3ccc(-c4ccc(-c5ccccc5)cc4)cc3)n2)cc1 [Compound A-19]

Solubility (solvent 3-methoxybutyl acetate): < 0.5% by mass
Solubility (solvent PGMEA/PGME (80% by mass/20% by mass)): < 0.5% by mass
Structure (SMILES): O=S(=O)(Nc1ccccc1)c1cccc2c(S(=O)(=O)Nc3ccccc3)cccc12 [Compound A-16]

Solubility (solvent Anisole): < 0.5% by mass
Solubility (solvent PGMEA): Less than 0.5% by % by mass
Solubility (solvent Propylene glycol diacetate): < 0.5% by mass
Structure (SMILES): CN(c1ccccc1)c1nc(Nc2ccccc2)nc(Nc2ccccc2)n1 [Compound A-10]

Solubility (solvent Toluene): < 0.5% by mass
Structure (SMILES): c1ccc(Nc2nc(Nc3ccccc3)nc(Nc3ccccc3)n2)cc1 [Compound A-1]

Solubility (solvent 3-methoxybutyl acetate): < 0.5% by mass
Solubility [1]: < 0.5% by mass
Solubility (solvent PGMEA): Less than 0.5% by % by mass
Structure (SMILES): c1ccc(Nc2nc(Nc3ccccc3)nc(Sc3ccccc3)n2)cc1 [Compound A-12]

Solubility (solvent Butyl acetate): < 0.5% by mass
Solubility (solvent PGME): < 0.5% by mass
Solubility (solvent PGMEA): Less than 0.5% by % by mass
Structure (SMILES): c1ccc2cc(Nc3nc(Nc4ccc5ccccc5c4)nc(Nc4ccc5ccccc5c4)n3)ccc2c1 [Compound A-4]

Solubility (solvent Dipropylene glycol dimethyl ether): < 0.5% by mass
Solubility (solvent PGMEA): Less than 0.5% by % by mass
Structure (SMILES): c1ccc(Nc2nc(Nc3ccccc3)nc(Oc3ccccc3)n2)cc1 [Compound A-11]

Solubility (solvent Cyclohexyl acetate): < 0.5% by mass
Solubility (solvent PGMEA): Less than 0.5% by % by mass
Solubility [2]: < 0.5% by mass
Structure (SMILES): O=S(=O)(Nc1ccccc1)c1cccc2c(S(=O)(=O)Nc3ccccc3)cccc12 [Compound A-15]

Solubility (solvent PGMEA): Less than 0.5% by % by mass
Structure (SMILES): CN(c1ccccc1)c1nc(Nc2ccc(-c3ccc(-c4ccccc4)cc3)cc2)nc(Nc2ccc(-c3ccc(-c4ccccc4)cc3)cc2)n1 [Compound A-23]

Solubility (solvent Cyclopentanone/PGME (90% by mass/10% by mass)): < 0.5% by mass
Structure (SMILES): O=S(=O)(Nc1ccccc1)c1cccc2c(S(=O)(=O)Nc3ccccc3)cccc12 [Compound A-17]

Solubility (solvent Cyclobutyl ether): < 0.5% by mass
Solubility [1]: < 0.5% by mass
Solubility (solvent PGMEA): Less than 0.5% by % by mass
Structure (SMILES): CSc1ccc(Nc2nc(Nc3ccc(SC)cc3)nc(Nc3ccc(SC)cc3)n2)cc1 [Compound A-9]
